Source: US8293374B2, “Test system for evaluating the compatibility of biologically active substances with copolymers” (Abbott GmbH & Co. KG, priority 2002, dated 2012)

Columns and labels:
[1] = Thermodynamic saturation solubility in test solvent, HPLC of clear supernatant after stirring 24 hours (method b); format: physicochemical
Method: Quantitative determination of the solubility is possible for example in the following way: • a) A concentration series is prepared by bringing various amounts of biologically active substance into contact with a constant amount of test solvent in parallel tests. After an equilibration time over a defined period at a given temperature, preferably with blending, e.g. stirring for 24 hours or ultrasound treatment for 30 min, the maximum concentration at which clear solutions are obtained is found. The solubility of the biologically active substance is between the concentration at which a clear solution is obtained but at the next concentration no clear solution is obtained. • b) An amount of the test solvent which is insufficient for completely dissolving is added to an amount of the biologically active substance, or further amounts of biologically active substance are added to the solution until the added amount no longer completely dissolves. After an equilibration time over a defined period at a given temperature, preferably with blending, e.g. stirring for 24 hours or ultrasound treatment for 30 min, a sample of the clear supernatant is taken. The mixture can for this purpose be previously centrifuged, e.g. using an ultracentrifuge at 8000 to 12 000 rpm. The concentration of the biologically active substance is determined in the sample of the clear supernatant, e.g. by high pressure liquid chromatography (HPLC). The value which is found corresponds to the solubility of the biologically active substance.
(§1) The copolymer was simulated by a mixture of 1,3-bis-(pyrrolidon-1-yl)butane and 1,4-diacetoxybutane in the ratio of 6:4 by weight.
In an alternative determination method, 150 mg of lopinavir were mixed with 350 mg of the test solvent and stirred at room temperature for 24 hours. The sample was then centrifuged at 12 000 rpm for one minute. The clear supernatant was investigated by HPLC.
Example 1b) was repeated but with the test solvent containing 5% by weight Cremophor RH 40.
Example 1b) was repeated with the abovementioned active ingredient premix. 21.3% by weight lopinavir was found in the clear supernatant by HPLC.
Example 3a) was repeated, using the concentrations indicated in the table below, and with the test solvent containing 10% by weight Cremophor RH 40. […] The HPLC method led to a result of 21.7% for lopinavir.

[2] = Maximum solubility in test solvent after ultrasound treatment, HPLC of supernatant (method c); format: physicochemical
Method: However, the active ingredient loading in solid solutions can be increased greatly by energy input. The maximum active ingredient loading achievable in a given matrix of a copolymer can be predicted with the test system of the invention by determining the solubility of the biologically active substance in accordance with one of the aforementioned methods a) or b), the equilibration being carried out by heating to a temperature of, for example, 140° C., in particular from 110 to 140° C., or by sonication.
as §1
The maximum solubility was determined by mixing 60 mg of lopinavir with 140 mg of the test solvent and treating with ultrasound at room temperature for 30 min. The solvent was then centrifuged at 10 000 rpm for 10 min. A sample of the clear supernatant was investigated by HPLC. […] The remaining amount of the sample was stored at room temperature for 4 weeks. Then a further sample of the supernatant was taken and investigated by HPLC. A concentration of 28.87% by weight was found.

solubility ([1]; 150 mg lopinavir + 350 mg test solvent 6:4, stirred at room temperature 24 hours, HPLC of clear supernatant): 24.9 % by weight
solubility ([1]; HPLC of supernatant, test solvent containing 5% by weight Cremophor RH 40): 22.8%
lopinavir found in the clear supernatant ([1]; HPLC, lopinavir/ritonavir premix 4:1 by weight, test solvent 6:4): 21.3 % by weight
thermodynamic saturation solubility, HPLC method ([1]; lopinavir/ritonavir premix 4:1, test solvent containing 10% by weight Cremophor RH 40): 21.7%
maximum solubility ([2]; 60 mg lopinavir + 140 mg test solvent, ultrasound at room temperature 30 min, HPLC of supernatant): 39.72 % by weight
concentration in supernatant after storage ([2]; after ultrasound treatment, sample stored at room temperature for 4 weeks, HPLC): 28.87 % by weight
Structure (SMILES): Cc1cccc(C)c1OCC(=O)N[C@@H](Cc1ccccc1)[C@@H](O)C[C@H](Cc1ccccc1)NC(=O)[C@H](C(C)C)N1CCCNC1=O [Lopinavir]
influence of Cremophor RH 40 on thermodynamic saturation solubility ([1]; 5% by weight Cremophor RH 40 in test solvent versus none): reduces the thermodynamic saturation solubility
influence of ritonavir on thermodynamic saturation solubility ([1]; presence of ritonavir (premix 4:1) versus lopinavir alone): reduces the thermodynamic saturation solubility
